Test results reported in ChEMBL document CHEMBL5614405 (J Med Chem, 2024).
pIC50: −log10 of the molar value. Active and inactive are the calls of the source. The calls are words filed in the database; no cut-off is given here.

Key:
[1] = molecular target: T1, Rho-associated protein kinase 1 (Homo sapiens, UniProt Q13464); assay: Inhibition of ROCK1 (unknown origin) incubated for 10 mins in presence of ATP by mobility shift assay
Target sequence in this assay (Q13464 whole entry): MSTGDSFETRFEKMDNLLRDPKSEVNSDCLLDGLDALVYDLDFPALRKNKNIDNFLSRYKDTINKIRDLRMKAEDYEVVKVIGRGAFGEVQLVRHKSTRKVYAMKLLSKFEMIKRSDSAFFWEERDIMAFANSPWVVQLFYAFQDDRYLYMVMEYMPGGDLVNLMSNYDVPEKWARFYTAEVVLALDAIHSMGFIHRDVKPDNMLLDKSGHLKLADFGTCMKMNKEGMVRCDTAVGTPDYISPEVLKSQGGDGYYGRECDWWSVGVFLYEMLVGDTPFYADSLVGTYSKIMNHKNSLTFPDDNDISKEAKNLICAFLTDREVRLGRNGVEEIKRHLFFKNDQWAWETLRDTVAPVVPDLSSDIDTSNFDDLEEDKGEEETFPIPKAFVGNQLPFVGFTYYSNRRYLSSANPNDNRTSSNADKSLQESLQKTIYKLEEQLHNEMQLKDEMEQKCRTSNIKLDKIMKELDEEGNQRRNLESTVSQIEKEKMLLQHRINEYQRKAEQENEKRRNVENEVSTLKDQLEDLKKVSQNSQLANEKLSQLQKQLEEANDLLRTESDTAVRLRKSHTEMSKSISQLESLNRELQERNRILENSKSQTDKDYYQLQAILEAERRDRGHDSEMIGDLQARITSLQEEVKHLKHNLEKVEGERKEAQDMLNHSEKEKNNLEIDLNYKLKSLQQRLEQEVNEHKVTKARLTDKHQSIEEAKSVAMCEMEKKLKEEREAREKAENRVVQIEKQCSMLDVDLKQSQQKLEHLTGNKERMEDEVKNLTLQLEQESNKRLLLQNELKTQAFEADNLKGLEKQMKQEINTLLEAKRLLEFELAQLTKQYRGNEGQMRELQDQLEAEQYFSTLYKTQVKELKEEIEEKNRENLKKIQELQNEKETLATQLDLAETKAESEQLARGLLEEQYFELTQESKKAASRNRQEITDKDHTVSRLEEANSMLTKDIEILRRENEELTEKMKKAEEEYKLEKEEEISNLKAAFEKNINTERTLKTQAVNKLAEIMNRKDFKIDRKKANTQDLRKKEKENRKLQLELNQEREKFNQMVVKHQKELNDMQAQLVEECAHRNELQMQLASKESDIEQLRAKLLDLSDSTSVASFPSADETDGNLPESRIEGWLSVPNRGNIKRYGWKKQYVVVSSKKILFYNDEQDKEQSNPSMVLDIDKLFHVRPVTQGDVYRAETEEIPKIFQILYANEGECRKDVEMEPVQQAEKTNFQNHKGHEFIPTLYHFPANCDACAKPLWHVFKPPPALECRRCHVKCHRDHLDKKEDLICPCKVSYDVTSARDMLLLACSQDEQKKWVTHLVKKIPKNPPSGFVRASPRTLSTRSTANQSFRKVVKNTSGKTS

[2] = molecular target: T2, Rho-associated protein kinase 2 (Homo sapiens, UniProt O75116); assay: Inhibition of ROCK2 (unknown origin) incubated for 60 mins in presence of ATP by mobility shift assay
Target sequence in this assay (O75116 whole entry): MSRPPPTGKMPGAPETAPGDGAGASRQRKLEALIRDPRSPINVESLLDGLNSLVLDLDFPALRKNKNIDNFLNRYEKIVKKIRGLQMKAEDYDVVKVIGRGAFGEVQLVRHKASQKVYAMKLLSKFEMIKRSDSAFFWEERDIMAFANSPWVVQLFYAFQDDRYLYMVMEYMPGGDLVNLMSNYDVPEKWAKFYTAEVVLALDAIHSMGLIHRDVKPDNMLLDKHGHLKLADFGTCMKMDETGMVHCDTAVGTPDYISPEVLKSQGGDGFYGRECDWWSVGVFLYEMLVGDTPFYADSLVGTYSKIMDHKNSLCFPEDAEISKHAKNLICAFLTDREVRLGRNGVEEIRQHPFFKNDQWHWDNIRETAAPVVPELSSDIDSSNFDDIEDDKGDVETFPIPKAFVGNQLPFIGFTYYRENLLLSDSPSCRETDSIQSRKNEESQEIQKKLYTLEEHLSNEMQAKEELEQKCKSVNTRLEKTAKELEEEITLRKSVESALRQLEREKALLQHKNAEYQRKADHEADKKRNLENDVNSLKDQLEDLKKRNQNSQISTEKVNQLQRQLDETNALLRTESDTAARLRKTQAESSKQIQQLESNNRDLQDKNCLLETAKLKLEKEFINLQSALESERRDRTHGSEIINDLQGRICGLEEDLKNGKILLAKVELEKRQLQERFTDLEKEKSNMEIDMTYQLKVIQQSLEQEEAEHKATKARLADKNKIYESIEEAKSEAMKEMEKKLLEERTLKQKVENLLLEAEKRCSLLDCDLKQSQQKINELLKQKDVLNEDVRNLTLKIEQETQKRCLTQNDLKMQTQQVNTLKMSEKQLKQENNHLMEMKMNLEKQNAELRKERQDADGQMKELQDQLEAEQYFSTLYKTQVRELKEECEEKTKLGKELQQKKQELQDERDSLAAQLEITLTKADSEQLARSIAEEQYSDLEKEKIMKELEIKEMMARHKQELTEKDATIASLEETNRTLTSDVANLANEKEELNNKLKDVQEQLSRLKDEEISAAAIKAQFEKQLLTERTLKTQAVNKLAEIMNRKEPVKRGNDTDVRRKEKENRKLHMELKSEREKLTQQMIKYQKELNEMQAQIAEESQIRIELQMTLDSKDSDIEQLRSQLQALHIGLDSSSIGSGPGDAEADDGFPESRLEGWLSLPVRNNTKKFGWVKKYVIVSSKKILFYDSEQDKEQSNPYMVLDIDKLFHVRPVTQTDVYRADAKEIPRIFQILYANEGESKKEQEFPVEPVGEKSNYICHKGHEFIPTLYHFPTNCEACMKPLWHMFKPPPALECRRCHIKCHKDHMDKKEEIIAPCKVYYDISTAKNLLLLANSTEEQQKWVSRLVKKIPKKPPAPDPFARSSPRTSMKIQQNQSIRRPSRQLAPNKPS

[3] = molecular target: T1, Rho-associated protein kinase 1; assay: Inhibition of ROCK1 (unknown origin) assessed as fold change at 3 uM incubated for 10 mins in presence of ATP by mobility shift assay relative to control
Target sequence in this assay (Q13464 2-1354 limits assumed): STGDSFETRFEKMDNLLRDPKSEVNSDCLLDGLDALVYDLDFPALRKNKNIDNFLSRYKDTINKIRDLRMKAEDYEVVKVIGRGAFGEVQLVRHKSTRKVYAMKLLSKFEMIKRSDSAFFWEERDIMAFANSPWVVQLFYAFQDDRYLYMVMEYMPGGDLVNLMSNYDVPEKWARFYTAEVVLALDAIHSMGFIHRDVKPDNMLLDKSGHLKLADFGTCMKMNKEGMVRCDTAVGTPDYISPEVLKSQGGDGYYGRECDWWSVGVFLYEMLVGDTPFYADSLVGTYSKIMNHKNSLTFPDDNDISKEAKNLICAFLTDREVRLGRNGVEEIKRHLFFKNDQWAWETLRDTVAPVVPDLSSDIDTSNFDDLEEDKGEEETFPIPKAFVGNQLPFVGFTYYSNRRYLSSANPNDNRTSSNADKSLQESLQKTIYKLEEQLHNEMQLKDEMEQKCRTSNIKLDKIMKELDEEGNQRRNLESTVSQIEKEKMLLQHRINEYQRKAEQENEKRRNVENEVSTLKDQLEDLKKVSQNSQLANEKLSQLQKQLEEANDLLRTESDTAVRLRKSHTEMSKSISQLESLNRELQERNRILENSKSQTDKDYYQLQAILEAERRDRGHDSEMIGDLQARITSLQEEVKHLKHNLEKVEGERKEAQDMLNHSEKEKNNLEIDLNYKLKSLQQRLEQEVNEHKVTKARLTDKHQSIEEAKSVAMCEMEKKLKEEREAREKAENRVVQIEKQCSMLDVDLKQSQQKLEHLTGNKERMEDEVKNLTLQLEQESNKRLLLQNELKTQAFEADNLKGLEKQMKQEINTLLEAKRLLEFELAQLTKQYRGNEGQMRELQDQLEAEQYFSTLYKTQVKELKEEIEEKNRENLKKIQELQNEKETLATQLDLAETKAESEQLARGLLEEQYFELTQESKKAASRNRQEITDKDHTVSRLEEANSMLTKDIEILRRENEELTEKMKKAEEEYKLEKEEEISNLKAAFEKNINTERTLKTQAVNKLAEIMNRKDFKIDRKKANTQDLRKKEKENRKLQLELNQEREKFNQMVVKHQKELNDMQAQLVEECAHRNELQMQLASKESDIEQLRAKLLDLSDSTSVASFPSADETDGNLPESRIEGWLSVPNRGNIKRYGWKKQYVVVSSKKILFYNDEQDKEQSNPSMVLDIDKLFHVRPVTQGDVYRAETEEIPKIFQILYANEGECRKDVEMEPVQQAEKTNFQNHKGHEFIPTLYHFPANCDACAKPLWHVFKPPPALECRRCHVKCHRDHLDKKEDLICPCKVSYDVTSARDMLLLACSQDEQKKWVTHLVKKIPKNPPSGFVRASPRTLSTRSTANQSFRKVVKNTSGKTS

[4] = molecular target: T2, Rho-associated protein kinase 2; assay: Inhibition of ROCK2 (unknown origin) assessed as fold change at 3 uM incubated for 60 mins in presence of ATP by mobility shift assay
Target sequence in this assay (O75116 whole entry, looked up): as the sequence (O75116 whole entry) above

Oryctolagus cuniculus [5] = assay: Anti-glaucoma activity in methylcellulose-induced acute intraocular hypertensive New Zealand rabbit model assessed as reduction in intraocular pressure at 1.55 mM,TOP administration on conjunctival sac measured upto 24 hrs relative to Netarsudil; type: functional, organism-based
Oryctolagus cuniculus [6] = assay: Anti-glaucoma activity in methylcellulose-induced acute intraocular hypertensive New Zealand rabbit model assessed as reduction in intraocular pressure at 1.55 mM,TOP administration on conjunctival sac measured upto 24 hrs relative to (R)-4-(3-amino-1-(isoquinolin-6-ylamino)-1-oxopropan-2-yl)benzyl 3-((nitrooxy)methyl)benzoate Dimethanesulfonate; type: functional, organism-based
Oryctolagus cuniculus [7] = assay: Anti-glaucoma activity in methylcellulose-induced acute intraocular hypertensive New Zealand rabbit model assessed as reduction in intraocular pressure at 441.27 uM,TOP administration on conjunctival sac measured after 3 hrs relative to Netarsudil; type: functional, organism-based
Oryctolagus cuniculus [8] = assay: Anti-glaucoma activity in methylcellulose-induced acute intraocular hypertensive New Zealand rabbit model assessed as reduction in intraocular pressure at 441.27 uM,TOP administration on conjunctival sac measured for 4 to 24 hrs relative to Netarsudil; type: functional, organism-based; conditions: time 4-24 hrs
Mus musculus [9] = assay: Anti-glaucoma activity in magnetic microbead induced occlusion C57BL/6J mouse model assessed as reduction in intraocular pressure at 441.27 uM,TOP administration on right eye measured after 1 hr by tonometric analysis; type: functional, organism-based
Mus musculus [10] = assay: Anti-glaucoma activity in magnetic microbead induced occlusion C57BL/6J mouse model assessed as reduction in intraocular pressure at 441.27 uM,TOP administration on right eye measured upto 8 hr by tonometric analysis relative to Netarsudil; type: functional, organism-based
Mus musculus [11] = assay: Anti-glaucoma activity in magnetic microbead induced occlusion C57BL/6J mouse model assessed as increase in retinal ganglion cell population at 441.27 uM,TOP administrated on right eye thrice a day for 21 days by immunofluorescence based confocal microscopic analysis; type: functional, organism-based; conditions: time 21.0 day
Mus musculus [12] = assay: Anti-glaucoma activity in magnetic microbead induced occlusion C57BL/6J mouse model assessed as increase in retinal ganglion cell population at 441.27 uM,TOP administrated on right eye thrice a day for 21 days by immunofluorescence based confocal microscopic analysis relative to Netarsudil; type: functional, organism-based; conditions: time 21.0 day
Mus musculus [13] = assay: Anti-glaucoma activity in magnetic microbead induced occlusion C57BL/6J mouse model assessed as increase in retinal ganglion cell density at 441.27 uM,TOP administrated on right eye thrice a day for 21 days by immunofluorescence based confocal microscopic analysis relative to control; type: functional, organism-based; conditions: time 21.0 day
[14] = Unbound drug concentration in New Zealand rabbit cornea at 1.55 mM TOP administration on eye measured upto 1 hr by LC-MS/MS analysis; type: ADME, tissue-based, Oryctolagus cuniculus; conditions: in vivo, topical_or_ocular, 1550 µM
[15] = Drug metabolism in New Zealand rabbit cornea assessed as 3-(hydroxymethyl)benzoic acid metabolite formation at 1.55 mM TOP administration on eye measured upto 1 hr by LC-MS/MS analysis; type: ADME, tissue-based, Oryctolagus cuniculus; conditions: in vivo, topical_or_ocular, 1550 µM
[16] = Unbound drug concentration in New Zealand rabbit cornea at 1.55 mM TOP administration on eye measured upto 3 hr by LC-MS/MS analysis; type: ADME, tissue-based, Oryctolagus cuniculus; conditions: in vivo, topical_or_ocular, 1550 µM
[17] = Drug metabolism in New Zealand rabbit cornea assessed as 3-(hydroxymethyl)benzoic acid metabolite formation at 1.55 mM TOP administration on eye measured upto 3 hr by LC-MS/MS analysis; type: ADME, tissue-based, Oryctolagus cuniculus; conditions: in vivo, topical_or_ocular, 1550 µM
[18] = Drug metabolism in New Zealand rabbit cornea assessed as 3-(hydroxymethyl)benzoic acid metabolite formation at 1.55 mM TOP administration on eye measured after 4 hr by LC-MS/MS analysis; type: ADME, tissue-based, Oryctolagus cuniculus; conditions: in vivo, topical_or_ocular, 1550 µM
[19] = Drug metabolism in New Zealand rabbit cornea assessed as 3-((nitrooxy)methyl)benzoic acid metabolite formation at 1.55 mM TOP administration on eye measured upto 6 hr by LC-MS/MS analysis; type: ADME, tissue-based, Oryctolagus cuniculus; conditions: in vivo, topical_or_ocular, 1550 µM
[20] = Drug metabolism in New Zealand rabbit aqueous humor of eyeball assessed as (S)-3-amino-2-(4-(hydroxymethyl)phenyl)-N-(isoquinolin-6-yl)propanamide Dimethanesulfonate metabolite formation at 1.55 mM TOP administration on eye measured after 4 hrs by LC-MS/MS analysis; type: ADME, Oryctolagus cuniculus; conditions: in vivo, topical_or_ocular, 1550 µM
[21] = Drug metabolism in New Zealand rabbit aqueous humor of eyeball assessed as 3-(hydroxymethyl)benzoic acid metabolite formation at 1.55 mM TOP administration on eye measured after 4 hrs by LC-MS/MS analysis; type: ADME, Oryctolagus cuniculus; conditions: in vivo, topical_or_ocular, 1550 µM
[22] = Drug metabolism in New Zealand rabbit aqueous humor of eyeball assessed as (S)-3-amino-2-(4-(hydroxymethyl)phenyl)-N-(isoquinolin-6-yl)propanamide Dimethanesulfonate metabolite formation at 1.55 mM TOP administration on eye measured after 4 to 6 hrs by LC-MS/MS analysis; type: ADME, tissue-based, Oryctolagus cuniculus; conditions: in vivo, topical_or_ocular, 1550 µM, time 4-6 hrs
[23] = Drug metabolism in New Zealand rabbit aqueous humor of eyeball assessed as 3-(hydroxymethyl)benzoic acid metabolite formation at 1.55 mM TOP administration on eye measured after 4 to 6 hrs by LC-MS/MS analysis; type: ADME, Oryctolagus cuniculus; conditions: in vivo, topical_or_ocular, 1550 µM, time 4-6 hrs
[24] = Unbound drug concentration in New Zealand rabbit aqueous humor of eyeball at 1.55 mM TOP administration on eye measured upto 6 hr by LC-MS/MS analysis; type: ADME, tissue-based, Oryctolagus cuniculus; conditions: in vivo, topical_or_ocular, 1550 µM
[25] = Drug metabolism in New Zealand rabbit aqueous humor of eyeball assessed as 3-((nitrooxy)methyl)benzoic acid metabolite formation at 1.55 mM TOP administration on eye measured upto 6 hrs by LC-MS/MS analysis; type: ADME, tissue-based, Oryctolagus cuniculus; conditions: in vivo, topical_or_ocular, 1550 µM
[26] = Drug metabolism in New Zealand rabbit aqueous humor of eyeball assessed as 3-(hydroxymethyl)benzoic acid metabolite formation at 1.55 mM TOP administration on eye measured after 4 hr by LC-MS/MS analysis; type: ADME, tissue-based, Oryctolagus cuniculus; conditions: in vivo, topical_or_ocular, 1550 µM
[27] = Toxicity in New Zealand rabbit assessed as appearance of conjunctival congestion by measuring ocular irritation score at 0.03 % TOP administration on left eye measured after 1 day by draize eye irritation test; type: tissue-based, Oryctolagus cuniculus; conditions: in vivo, topical_or_ocular, 24 h
[28] = Toxicity in New Zealand rabbit assessed as appearance of conjunctival congestion by measuring ocular irritation score at 0.03 % TOP administration on left eye measured after 2 days by draize eye irritation test; type: tissue-based, Oryctolagus cuniculus; conditions: in vivo, topical_or_ocular, 48 h, time 2 day
[29] = Toxicity in New Zealand rabbit assessed as appearance of conjunctival congestion by measuring ocular irritation score at 0.03 % TOP administration on left eye measured after 3 days by draize eye irritation test; type: tissue-based, Oryctolagus cuniculus; conditions: in vivo, topical_or_ocular, 72 h, time 3 day
[30] = Toxicity in New Zealand rabbit assessed as appearance of conjunctival congestion by measuring ocular irritation score at 0.03 % TOP administration on left eye measured after 4 days by draize eye irritation test; type: tissue-based, Oryctolagus cuniculus; conditions: in vivo, topical_or_ocular, 96 h, time 4 day
[31] = Toxicity in New Zealand rabbit assessed as appearance of conjunctival congestion by measuring ocular irritation score at 0.03 % TOP administration on left eye measured after 5 days by draize eye irritation test; type: tissue-based, Oryctolagus cuniculus; conditions: in vivo, topical_or_ocular, 120 h, time 5 day
[32] = Toxicity in New Zealand rabbit assessed as appearance of conjunctival congestion by measuring ocular irritation score at 0.03 % TOP administration on left eye measured after 6 days by draize eye irritation test; type: tissue-based, Oryctolagus cuniculus; conditions: in vivo, topical_or_ocular, 144 h, time 6 day
[33] = Toxicity in New Zealand rabbit assessed as appearance of conjunctival congestion by measuring ocular irritation score at 0.03 % TOP administration on left eye measured after 7 days by draize eye irritation test; type: tissue-based, Oryctolagus cuniculus; conditions: in vivo, topical_or_ocular, 168 h, time 7 day
[34] = Toxicity in chicken embryo chorioallantoic membrane assessed as irritation score at 1.55 mM measured after 5 mins by microscopic analysis relative to Netarsudil; type: tissue-based, Gallus gallus; conditions: in vivo, 1550 µM
[35] = Toxicity in chicken embryo chorioallantoic membrane assessed as irritation score at 1.55 mM measured after 5 mins in presence of PTIO by microscopic analysis; type: tissue-based, Gallus gallus; conditions: in vivo, 1550 µM
[36] = Toxicity in chicken embryo chorioallantoic membrane assessed as irritation score at 1.55 mM measured after 5 mins in presence of NS 2028 by microscopic analysis; type: tissue-based, Gallus gallus; conditions: in vivo, 1550 µM
[37] = Drug metabolism in New Zealand rabbit cornea assessed as (S)-3-amino-2-(4-(hydroxymethyl)phenyl)-N-(isoquinolin-6-yl)propanamide Dimethanesulfonate metabolite formation at 1.55 mM TOP administration on eye measured upto 6 hrs by LC-MS/MS analysis; type: ADME, tissue-based, Oryctolagus cuniculus; conditions: in vivo, topical_or_ocular, 1550 µM

Compound: CS(=O)(=O)O.CS(=O)(=O)O.NC[C@@H](C(=O)Nc1ccc2cnccc2c1)c1ccc(COC(=O)c2cccc(CO[N+](=O)[O-])c2)cc1
- pIC50 [1]: 8.90
- pIC50 [2]: 9.18
- fold change (FC) [3]: 28
- fold change (FC) [4]: 38
- Activity (Oryctolagus cuniculus [5]): Active
- Activity (Oryctolagus cuniculus [6]): Active
- Activity (Oryctolagus cuniculus [7]): Active
- Activity (Oryctolagus cuniculus [8]): inactive
- Activity (Mus musculus [9]): Active
- Activity (Mus musculus [10]): Active
- Activity (Mus musculus [11]): Active
- Activity (Mus musculus [12]): Active
- Activity (Mus musculus [13]): Active
- Drug uptake(free) [14]: 14.12 ng/g
- Drug metabolism [15]: 371.53 ng/g
- Drug uptake(free) [16]: Not Active
- Drug metabolism [17]: Metabolite_Notdetected
- Drug metabolism [18]: 114.73 ng/mg
- Drug metabolism [19]: Metabolite_Detected
- Drug metabolism [20]: 0.96 ng/mL
- Drug metabolism [21]: 62.95 ng/mL
- Drug metabolism [22]: Metabolite_Notdetected
- Drug metabolism [23]: Metabolite_Notdetected
- Drug uptake(free) [24]: Active
- Drug metabolism [25]: Metabolite_Detected
- Drug metabolism [26]: 60.87 ng/mL
- Activity [27]: 1.67
- Activity [28]: 1
- Activity [29]: 1.67
- Activity [30]: 1.67
- Activity [31]: 0.67
- Activity [32]: 1
- Activity [33]: 0.67
- Activity [34]: Toxic
- Activity [35]: Toxic
- Activity [36]: Toxic
- Drug metabolism [37]: Metabolite_Detected
